We go through two compounds from article PMC8929364, “Metopimazine is primarily metabolized by a liver amidase in humans” (Pharmacology Research & Perspectives, 2021).

Holding throughout (format): in vitro ADME
Data set [1] in a line: Incubation of MPZ in human liver S9. Conditions: 2.5 µM MPZ, human liver S9 1 mg/ml, NADPH, 60 min. As to the method:
(§1) An initial experiment was conducted with S9 fractions from liver and intestine to assess the role of liver and intestinal enzymes in the metabolism of MPZ. The reaction mixture contained 2.5 µM MPZ, pooled human liver or intestine S9 fraction (1 mg/ml S9 protein), 100 mM KPi buffer (pH 7.4). The reaction mixture was pre‐incubated for 3–5 min at 37°C in a humidified incubator filled with 5% CO2 followed by the addition of NADPH (1 mM) to initiate the reaction. The reaction was incubated for 0 and 60 min. The total percentage of organic solvent in the incubation mixture was ≤0.1%. The reactions were terminated by the addition of sample mixture of acetonitrile and ethanol (90:10, v/v). The positive control substrate, 7‐EC, was incubated in triplicate in an identical manner as MPZ for S9 fractions.
(§2) The degree of disappearance of each analyte was evaluated by comparing the PAR of analyte to IS or concentration in different sampling time points to the PAR of time zero, (t = 0, 100%). The percent of parent remaining values were calculated according to the following equation: %parentremaining=(meanconcentrationorPARateachsamplingtimepoint/meanconcentrationorPARoftimezero)×100

The nature of data set [2]: Incubation of MPZ in human intestine S9. The following applies: 2.5 µM MPZ, human intestine S9 1 mg/ml, NADPH, 60 min. On the procedure: as §1, §2
The nature of data set [3]: Incubation of MPZ with human kidney microsomes (HKM). The following applies: pH 8.4, NADPH, HKM 0.5 mg/ml, 60 min. On the procedure:
MPZ, at 1.0 and 10.0 µM, was incubated with HLM or HKM to determine the contribution of microsomal FMOs on the metabolism of MPZ.
A reaction mixture containing KPi buffer (pH 8.4), HLM or HKM (0.5 mg/ml protein) and MPZ (1.0 and 10.0 µM) was pre‐incubated for 3–5 min at 37°C. The reaction was initiated by the addition of NADPH into the reaction mixture. The reaction was conducted for 0 and 60 min. A positive control (benzydamine, 100 µM) was incubated in duplicate for 0 and 20 min. Parallel incubation was conducted by adding 1 mM methimazole, a non‐specific FMO inhibitor, under identical conditions. Heat‐inactivated microsomes (50°C for at least 5 min) was incubated under identical conditions negative control. All other procedures were the same as described previously.

In data set [4] the target is T1, rhFMO3 (Homo sapiens, UniProt P31513).
T1 construct: purchased Corning Inc
T1 sequence (P31513 1-532): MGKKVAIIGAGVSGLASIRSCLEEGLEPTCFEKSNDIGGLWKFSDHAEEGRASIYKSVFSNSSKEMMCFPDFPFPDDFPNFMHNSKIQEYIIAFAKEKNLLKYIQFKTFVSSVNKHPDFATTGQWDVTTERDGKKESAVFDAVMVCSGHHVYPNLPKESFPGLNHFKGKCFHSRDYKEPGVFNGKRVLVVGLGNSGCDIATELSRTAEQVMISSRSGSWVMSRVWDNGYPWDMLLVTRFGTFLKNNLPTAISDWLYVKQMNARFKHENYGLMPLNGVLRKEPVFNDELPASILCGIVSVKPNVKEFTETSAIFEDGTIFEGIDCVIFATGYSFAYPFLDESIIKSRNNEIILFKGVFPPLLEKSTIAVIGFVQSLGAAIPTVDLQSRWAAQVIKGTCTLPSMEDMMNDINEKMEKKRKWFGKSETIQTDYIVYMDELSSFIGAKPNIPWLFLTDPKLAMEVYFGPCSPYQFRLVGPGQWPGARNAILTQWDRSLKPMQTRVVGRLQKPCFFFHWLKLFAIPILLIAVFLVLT
Nature of the data set: Incubation of MPZ with recombinant FMO: FMO3. The following applies: 1 µM MPZ, pH 8.4. As to the method: (§3) MPZ at 1.0 µM was incubated in triplicate with individual recombinant FMO (Supersomes™ for FMO 1, FMO3, and FMO5). Protein concentrations for all rFMO isoforms were 0.05 mg/ml. A positive control (benzydamine, 100 µM) was incubated for 20 min. The reaction mixture containing MPZ or FMO substrate, KPi buffer (pH 8.4), and FMO Supersomes™ was pre‐incubated at 37°C for 3–5 min. All other procedures were the same as described previously. The negative control reactions were incubated absence of NADPH.

In data set [5] the target is T2, rhFMO5 (Homo sapiens, UniProt P49326).
T2 construct: purchased Corning Inc
T2 sequence (P49326 1-533): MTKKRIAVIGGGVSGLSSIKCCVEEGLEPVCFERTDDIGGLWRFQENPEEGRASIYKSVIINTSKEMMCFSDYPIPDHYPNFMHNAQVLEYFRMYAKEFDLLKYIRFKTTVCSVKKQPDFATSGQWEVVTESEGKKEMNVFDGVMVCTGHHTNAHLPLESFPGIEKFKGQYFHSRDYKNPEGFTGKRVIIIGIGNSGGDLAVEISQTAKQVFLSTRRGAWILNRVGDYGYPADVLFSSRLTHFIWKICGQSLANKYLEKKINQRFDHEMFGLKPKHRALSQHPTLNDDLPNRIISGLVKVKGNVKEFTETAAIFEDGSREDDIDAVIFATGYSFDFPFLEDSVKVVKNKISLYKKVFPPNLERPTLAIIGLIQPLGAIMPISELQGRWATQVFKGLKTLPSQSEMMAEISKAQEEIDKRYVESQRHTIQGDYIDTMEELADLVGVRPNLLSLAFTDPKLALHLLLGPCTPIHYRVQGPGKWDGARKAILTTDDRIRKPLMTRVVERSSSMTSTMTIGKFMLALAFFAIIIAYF
Nature of the data set: Incubation of MPZ with recombinant FMO: FMO5. The following applies: 1 µM MPZ, pH 8.4. As to the method:
as §3

The test system of data set [6] is human liver microsomal amidase. As to the kind of experiment: Incubations with heat-treated HLM for microsomal hydrolase/amidase activity, with and without BNPP. The following applies: 10 µM MPZ, pH 7.4, 8.4 and 9.4, 60 min. On the procedure:
Prior to the reaction for amidase activity, the reaction mixture containing KPi buffer (pH 7.4, 8.4, or 9.4) and HLM was pre‐incubated at 50°C for 5 min to inactivate CYP and FMO activities in HLM. The mixture was placed on ice to cool down. An aliquot was taken out which was considered as t = 0 min incubation. Then 10 µM MPZ was added into the remaining mixture and incubated at 37°C on an orbital shaker for 60 min. A parallel set of incubations was conducted with 10 µM MPZ in the presence at 2 and 16 µM, of BNPP (a known inhibitor of amidase). All reactions were in triplicate. The total percentage of organic solvent in the incubation mixture was ≤0.1%. The reactions were terminated by the addition of chilled acetonitrile: methanol, 90:10, (v/v). The samples were vortex‐mixed and stored at ≤−70°C and were subjected analyzed by LC–MS/MS.

As for `CS(=O)(=O)c1ccc2c(c1)N(CCCN1CCC(C(N)=O)CC1)c1ccccc1S2` [MPZ, metopimazine], the “percent of MPZ disappeared” value in data set [1] is listed as “approximately 30%”. Moreover, the “metabolism in human intestine S9” value in data set [2] is listed as “virtually no metabolism”. The “metabolite formation in HKM” value in data set [3] was “did not produce any metabolites”. In addition, the “metabolism by rhFMO3” value in data set [4] is given as “did not metabolize MPZ”. In addition, the “metabolism by rhFMO5” value in data set [5] is “did not metabolize MPZ”.
As for `CS(=O)(=O)c1ccc2c(c1)N(CCCN1CCC(C(=O)O)CC1)c1ccccc1S2` [MPZA, metopimazine acid], in data set [6], the “pH dependence of MPZA formation in HLM” value was “faster the higher the pH”.
